Patent publication US20080206311A1, “Sucrase Activity Inhibitor, Glucoamylase Activity Inhibitor and Food and Feed Containing the Same” (MITSUI SUGAR CO., LTD., priority 2005, published 2008)
“Also recorded” adds a separate entry of the source.

How the values were obtained:
[1] = molecular target: T1, sucrase (Rattus norvegicus, UniProt P23739); test: Sucrase activity inhibition with rat small-intestinal enzyme liquid, substrate sucrose; assay type: biochemical
T1 construct: This liquid contained a mixture of enzymes present in small intestine, such as sucrose, glucoamylase, maltase, and isomaltase; tissue Sigma Corporation; host or cells: rat small intestine (acetone powder), buffer extract, unpurified
Procedure: (§1) Palatinose (trade name: Palatinose IC, ex Shin Mitsui Sugar Co., Ltd.) (test sample) was used as a sample for investigating each enzyme activity inhibitory effect. Maltose and sucrose were used as substrates for maltase and sucrose, respectively. The test sample and the substrates were dissolved in 0.1 M phosphate buffer (pH 6.8) at the concentration shown in Table 1 below to prepare test solutions (Solutions 4 and 5). Also, the test sample or the substrates were dissolved in 0.1 M phosphate buffer (pH 6.8), respectively to at the concentration shown in Table 1 below to prepare control solutions (Solution 1 for the test sample and Solutions 2 and 3 for the substrates).
(§2) Two grams of rat small-intestinal acetone powder (ex Sigma Corporation) were dissolved in 20 ml of 0.1 M phosphate buffer (pH 6.8), left standing one day at 5° C., and subsequently subjected to centrifugal separation (8000 rpm×15 min.). The supernatant was filtered through a 0.8 μm membrane filter to obtain a small-intestinal enzyme liquid. This liquid contained a mixture of enzymes present in small intestine, such as sucrose, glucoamylase, maltase, and isomaltase.
Each 0.25 ml of the small-intestinal enzyme liquid was added to each 5 ml of Solutions 1 through 5 and placed in a water bath at 37° C. to allow them to react for 60 min. while shaken at 60 strokes/min. After the reaction, they were heated in a boiling water bath for 3 min. for inactivation of the enzymes.
(§3) The glucose concentration in each solution after the reaction was measured using the F-kit Glucose (ex Roche). A liberated glucose concentration (g/l) was calculated by subtracting the blank value (0.1 M phosphate buffer alone) and the concentration of glucose originally contained in the test sample from each glucose concentration measured.
Next, each of the liberated glucose concentration was input in the following equation to obtain decomposition inhibition ratio for maltase and sucrose. In the present tests, the substrates and the inhibitors were decomposed by enzymes present in the small-intestinal enzyme liquid. However, the enzymes decomposing the substrates are different from the enzymes decomposing the inhibitors. The decomposition inhibition ratio was determined as a measure for the inhibitory effect. When the inhibitor was added, the glucose concentration was lower than that seen when the substrate alone was reacted. A higher decomposition inhibition ratio means a stronger inhibitory effect.
Decomposition inhibition ratio,%={(A+B)−(AB)}+(A+B)×100 [Equation 1]
wherein (A+B) indicates a sum of a liberated glucose concentration in the control solution containing the test sample alone after the reaction (A) and a liberated glucose concentration in the control solution containing the substrate alone after the reaction (B); and (AB) indicates a liberated glucose concentration in the test solution containing the test sample (A) and the substrate (B), after the reaction.
The procedures in Example 1 were repeated with the exception that the test solutions contained 5% of sucrose and 0.5%, 1.0%, 3.0% or 5.0% of palatinose to examine intensity of the sucrose activity inhibition. A control solution contained 5% of sucrose in 0.1 M phosphate buffer (pH 6.8).
The procedures in Example 1 were repeated with the exception that palatinit and palatinose were used as test samples and sucrose was used as a substrate. The test samples and the substrate were dissolved in 0.1 M phosphate buffer (pH 6.8) to attain the concentration shown in Table 3 to thereby prepare two test solutions. Besides, each one of the test samples or the substrate was dissolved in 0.1 M phosphate buffer (pH 6.8) to attain the concentration shown in Table 3 to thereby prepare control solutions. Each 5 ml of the aforementioned test solutions or the control solutions was subjected to the enzymatic reaction according to the same procedures as in Example 1. The glucose concentration and the fructose concentration were measured. […]

[2] = system: maltase; test: Maltase activity inhibition with rat small-intestinal enzyme liquid, substrate maltose; assay type: biochemical; conditions: 5% maltose + 5% test sample
Procedure: as §1
as §2, with “isomaltase. […]” for “isomaltase.”
as §3
Next, each of the liberated glucose concentration was input in the following equation to obtain decomposition inhibition ratio for maltase and sucrose. […] The decomposition inhibition ratio was determined as a measure for the inhibitory effect. […]
Each 5 ml of the aforementioned test solutions and control solutions was subjected to the enzymatic reaction in the same procedures as in Example 1. The liberated glucose concentration, the decomposition inhibition ratio for maltase and the decomposition inhibition ratio for sucrose were calculated for each solution after the reaction.

[3] = system: maltase; conditions: maltose as substrate; Non-Patent Publication 4; cited from earlier work
[4] = system: small-intestinal enzyme liquid; test: Decomposition of a saccharide alone (control solution) by small-intestinal enzyme liquid; assay type: biochemical, rat; conditions: 5% saccharide alone
Procedure, shortened: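 Rat small-intestinal acetone-powder extract in 0.1 M phosphate buffer pH 6.8, incubated 60 min at 37 °C with saccharide solutions, with shaking, then heat-inactivated. Released glucose, fructose and galactose measured enzymatically, corrected for buffer blank and, for glucose, for glucose already present in the sample.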

[5] = 5% sucrose + 5% test sample, Example 3 / Test Example 2

T1 sequence (P23739 whole entry): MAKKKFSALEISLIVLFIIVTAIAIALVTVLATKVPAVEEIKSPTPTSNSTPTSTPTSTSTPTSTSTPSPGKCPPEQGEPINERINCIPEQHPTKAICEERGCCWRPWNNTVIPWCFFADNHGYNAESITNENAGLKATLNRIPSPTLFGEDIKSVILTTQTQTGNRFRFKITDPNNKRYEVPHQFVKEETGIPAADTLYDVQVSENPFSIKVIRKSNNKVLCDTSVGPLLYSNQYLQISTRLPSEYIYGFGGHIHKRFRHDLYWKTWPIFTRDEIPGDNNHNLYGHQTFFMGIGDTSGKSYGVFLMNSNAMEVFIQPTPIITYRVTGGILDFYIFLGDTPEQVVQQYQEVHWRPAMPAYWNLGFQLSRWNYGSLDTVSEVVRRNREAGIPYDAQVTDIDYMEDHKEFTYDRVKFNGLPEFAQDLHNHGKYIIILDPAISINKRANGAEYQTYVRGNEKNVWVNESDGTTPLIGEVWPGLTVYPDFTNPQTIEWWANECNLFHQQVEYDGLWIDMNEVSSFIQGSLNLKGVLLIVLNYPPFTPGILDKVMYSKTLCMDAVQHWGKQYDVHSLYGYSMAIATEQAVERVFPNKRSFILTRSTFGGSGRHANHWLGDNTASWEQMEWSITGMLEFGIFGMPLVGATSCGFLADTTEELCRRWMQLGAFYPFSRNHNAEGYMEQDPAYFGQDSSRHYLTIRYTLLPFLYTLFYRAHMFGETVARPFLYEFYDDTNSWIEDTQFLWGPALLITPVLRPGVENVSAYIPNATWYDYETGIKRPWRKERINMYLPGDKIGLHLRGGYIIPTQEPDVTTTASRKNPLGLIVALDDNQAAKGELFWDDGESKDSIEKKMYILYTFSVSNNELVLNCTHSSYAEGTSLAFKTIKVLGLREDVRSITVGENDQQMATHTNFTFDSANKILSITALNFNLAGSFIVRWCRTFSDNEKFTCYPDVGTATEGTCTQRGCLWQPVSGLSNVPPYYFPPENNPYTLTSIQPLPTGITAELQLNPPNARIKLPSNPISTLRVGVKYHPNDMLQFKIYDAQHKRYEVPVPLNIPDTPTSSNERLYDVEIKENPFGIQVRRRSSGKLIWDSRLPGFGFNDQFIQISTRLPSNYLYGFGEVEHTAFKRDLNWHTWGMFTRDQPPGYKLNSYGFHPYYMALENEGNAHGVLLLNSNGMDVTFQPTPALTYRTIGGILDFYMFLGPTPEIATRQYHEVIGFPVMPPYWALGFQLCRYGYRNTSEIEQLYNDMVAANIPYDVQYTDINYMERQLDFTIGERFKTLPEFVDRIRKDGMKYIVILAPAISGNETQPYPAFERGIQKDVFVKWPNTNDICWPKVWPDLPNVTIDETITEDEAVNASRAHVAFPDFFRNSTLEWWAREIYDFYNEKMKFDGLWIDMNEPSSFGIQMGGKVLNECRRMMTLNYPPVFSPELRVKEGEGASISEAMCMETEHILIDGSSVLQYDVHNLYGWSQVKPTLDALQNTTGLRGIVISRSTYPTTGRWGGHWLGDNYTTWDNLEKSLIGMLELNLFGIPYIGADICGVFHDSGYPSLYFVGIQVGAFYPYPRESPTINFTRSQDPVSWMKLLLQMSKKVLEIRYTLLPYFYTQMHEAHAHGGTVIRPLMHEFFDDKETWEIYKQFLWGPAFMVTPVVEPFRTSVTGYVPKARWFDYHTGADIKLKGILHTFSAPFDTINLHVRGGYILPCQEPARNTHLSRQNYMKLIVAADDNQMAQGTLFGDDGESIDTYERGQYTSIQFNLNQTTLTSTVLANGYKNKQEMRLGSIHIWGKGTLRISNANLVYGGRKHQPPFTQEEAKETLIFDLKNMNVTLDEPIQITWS

With `OC[C@H]1O[C@H](OC[C@H]2OC(O)(CO)[C@@H](O)[C@@H]2O)[C@H](O)[C@@H](O)[C@@H]1O` (stereo partly shown) [palatinose, isomaltulose] the “Intensity of the sucrase activity inhibition, dependence on concentration (FIG. 1)” value ([1]; 5% sucrose + 0.5%, 1.0%, 3.0% or 5.0% palatinose) was “inhibits sucrose activity depending upon its concentration”, the “Sucrase activity inhibitory effect (in words)” value ([1]; 5% sucrose + 5% test sample) was “a sucrose activity inhibitory effect; also recorded: have a sucrose inhibitory effect” and the Liberated glucose concentration ([1]; 5% sucrose + 5% test sample, 37° C., 60 min, Example 1 / Test Example 1) was 0.803 ± 0.055 g/L. For the same compound, the “Decomposition inhibition ratio, %, against sucrase” value ([1]; 5% sucrose + 5% test sample, Equation 1, Example 1 / Test Example 1) was 24%, the “Decomposition inhibition ratio, %, against sucrase” value [1, 5] was 29% and the Liberated fructose concentration [1, 5] was 1.05 g/L. For the same compound, the Liberated glucose concentration [1, 5] was 0.79 g/L, the “Maltase activity inhibitory effect (in words)” value [2] was “has a maltase activity inhibitory effect” and the Liberated glucose concentration ([2]; 37° C., 60 min) was 4.757 ± 0.342 g/L. For the same compound, the “Decomposition inhibition ratio, %, against maltase” value ([2]; Equation 1) was 6%, the “Maltase activity inhibitory effect (reported)” value [3] was “have a maltase activity inhibitory effect” and the Liberated glucose concentration ([4]; 37° C., 60 min, pH 6.8, Example 1 / Test Example 1) was 0.095 ± 0.010 g/L. The Liberated fructose concentration ([4]; Example 3 / Test Examples 2, 3) was 0.21 g/L, the Liberated glucose concentration ([4]; Example 3 / Test Examples 2, 3) was 0.11 g/L and the Liberated glucose concentration ([4]; Example 4) was 0.205 g/L. The Liberated galactose concentration ([4]; Test Example 3) was 0.00 g/L.
